BigSolDB 2.1

OC[C@H]1O[C@@H](Oc2ccc(O)cc2)[C@H](O)[C@@H](O)[C@@H]1O
solubility (mole fraction)
Settings	283.15 K	288.15 K	293.15 K	298.15 K	303.15 K	313.15 K	323.15 K
in 1,4-dioxane	0.0046	–	0.00491	–	0.00579	0.00696	0.00816
in acetone	0.000601	–	0.000781	–	0.000962	0.00126	0.00161
in acetonitrile	3.5e-05	–	7.2e-05	–	0.000145	0.000239	0.000365
in dichloromethane	4e-06	7e-06	1e-05	1.3e-05	1.6e-05	–	–
in ethanol	0.00228	–	0.00274	–	0.00351	0.0044	0.00582
in ethyl acetate	0.000155	–	0.00016	–	0.000166	0.000173	0.00018
in isopropanol	0.000532	–	0.000795	–	0.00128	0.00172	0.00259
in methanol	0.0112	–	0.0129	–	0.0151	0.0181	0.0226
in n-pentanol	0.000338	–	0.000471	–	0.000689	0.000851	0.00119
in n-propanol	0.000787	–	0.00102	–	0.00142	0.00185	0.00248
in sec-butanol	0.000355	–	0.000691	–	0.000969	0.00167	0.00226
in water	0.00524	–	0.00796	–	0.0108	0.0173	0.0283
